Laboratory results taken from patent US20250179057A1, “MEK IMMUNE ONCOLOGY INHIBITORS AND THERAPEUTIC USES THEREOF” (Immuneering Corporation, priority 2022, published 2025).
Where two headings read alike, the source gives them in different places.

Tests used:
PAMPA (pH 7.4) = format: in vitro ADME; conditions: pH = 7.4
[1] = Mouse pharmacokinetics (oral cassette dosing), plasma; format: in vivo; conditions: BALB/c immunocompetent mice, 5 mg/kg p.o.
Description: Female mice (BALC/c) received a single dose (3 mice/treatment) of vehicle (10% 1N HCl:90% [20% […]) and at 0.5, 1, 2, 4, 8, 12 and 24-hour post dose humanely euthanized.
Blood was obtained through cardiac puncture into K+EDTA tubes, mixed by inversion and centrifuged to obtain the plasma. Blood will be kept on ice or at approximately 4° C. prior. Centrifugation will take place within 30 minutes of blood collection affording plasma samples. Plasma samples will be frozen as soon as possible after centrifugation and stored at −80° C. until analysis. All samples will be analysed by means of LC-MS/MS. Method development for bioanalysis will be performed by pharmacokinetics Department of Crown Bioscience (Taicang) Inc. using LC-MS/MS analysis (using Waters HSS T3 2.1×50 mm (1.8 um) LC column, and an API-4000 Electrospray MS unit). The results of a kinetic solubility (free base) study are represented in Table 19.

[2] = Human liver microsome stability (t1/2, Clint)
CYP1A2 = biological target: T1, CYP1A2 (Homo sapiens, UniProt P05177); experiment: CYP450 panel inhibition in human liver microsomes, 1A2 (phenacetin); conditions: for CYP-1A2 (Phenacetin) mean percentage CYP inhibition: human liver microsomes, 10 μM, substrate phenacetin
T1 sequence (P05177 1-516): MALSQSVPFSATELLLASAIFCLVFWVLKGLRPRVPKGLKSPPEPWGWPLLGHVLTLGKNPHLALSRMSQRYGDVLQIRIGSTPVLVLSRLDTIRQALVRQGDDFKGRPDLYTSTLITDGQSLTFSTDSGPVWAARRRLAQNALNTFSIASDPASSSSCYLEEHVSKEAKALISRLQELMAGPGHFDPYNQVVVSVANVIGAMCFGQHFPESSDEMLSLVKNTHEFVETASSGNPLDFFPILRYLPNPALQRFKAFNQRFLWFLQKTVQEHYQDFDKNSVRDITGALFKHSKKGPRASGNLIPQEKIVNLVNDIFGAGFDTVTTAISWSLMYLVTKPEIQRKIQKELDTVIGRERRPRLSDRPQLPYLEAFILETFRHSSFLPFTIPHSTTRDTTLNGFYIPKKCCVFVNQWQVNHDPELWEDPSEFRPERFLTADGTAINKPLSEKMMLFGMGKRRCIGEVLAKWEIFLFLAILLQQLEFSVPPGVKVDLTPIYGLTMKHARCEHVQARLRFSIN

[3] = eLogD (lipophilicity; pH 7.4) by HPLC; format: physicochemical
Description: Test compounds were dissolved in DMSO at a concentration of 10 mM and further diluted with methanol:water 1:1. Samples were analyzed using gradient HPLC with three different isocratic mobile phases of 0.25% octanol in methanol (60, 65 and 70%) and 20 mM MOPS buffer (pH 7.4) with decylamine. If needed, (for low E log Doct compounds) the isocratic mobile phases were adjusted to e.g. 40, 45 and 50% methanol. Peaks were detected using a diode array at absorbance 220-320 nm.
Capacity factors data (k′_=(tr−_t0)/t0) obtained at various amounts of methanol were extrapolated to 0% methanol and k′w values are determined using a linear procedure. E log Doct (7.4) is calculated using a series of reference standards with known Log D values. Each experiment was performed in triplicate.

CYP2C8 [4] = biological target: T2, CYP2C8 (Homo sapiens, UniProt P10632); experiment: CYP450 panel inhibition in human liver microsomes, 2C8 (amodiaquine); conditions: 10 μM, substrate amodiaquine
T2 sequence (P10632 1-490): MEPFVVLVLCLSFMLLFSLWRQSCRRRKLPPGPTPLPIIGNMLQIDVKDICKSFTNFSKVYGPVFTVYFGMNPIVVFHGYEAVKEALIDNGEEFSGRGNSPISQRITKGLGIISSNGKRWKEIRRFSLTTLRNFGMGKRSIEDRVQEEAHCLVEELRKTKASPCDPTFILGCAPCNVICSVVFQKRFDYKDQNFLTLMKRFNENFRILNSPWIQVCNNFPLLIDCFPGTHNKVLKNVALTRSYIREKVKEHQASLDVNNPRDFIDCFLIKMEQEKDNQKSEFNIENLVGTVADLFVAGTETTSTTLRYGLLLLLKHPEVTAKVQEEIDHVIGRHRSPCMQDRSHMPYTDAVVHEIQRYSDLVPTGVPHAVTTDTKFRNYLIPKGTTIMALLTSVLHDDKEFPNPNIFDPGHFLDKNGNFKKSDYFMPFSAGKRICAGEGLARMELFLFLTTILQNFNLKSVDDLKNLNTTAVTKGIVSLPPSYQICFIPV

[5] = Mouse liver microsome stability (t1/2, Clint)
[6] = Hepatocyte stability, wistar hannover rat; format: in vitro ADME; conditions: 0.5 million cells/ml; for CLint scaled at 2 μM: Wistar Hannover, rat, hepatocytes
Description: (§1) In this study, human, cynomolgus monkey, beagle dog, wistar hannover rat, and balb/c mouse hepatocyle stability was determined.

CYP2C8 [7] = biological target: T2, CYP2C8; experiment: in vitro; conditions: microsomes, pH 7.4
[8] = Hepatocyte stability, balb/c mouse; format: in vitro ADME; conditions: 0.5 million cells/ml; for CLint scaled at 2 μM: BALB/c, mouse, hepatocytes
Description: as §1

[9] = Hepatocyte stability, beagle dog; format: in vitro ADME; conditions: 0.5 million cells/ml; for CLint scaled at 2 μM: beagle, dog, hepatocytes
Description: as §1

[10] = Hepatocyte stability, human; format: in vitro ADME; conditions: 0.5 million cells/ml; for CLint scaled at 2 μM: human, hepatocytes
Description: as §1

CYP2D6 = CYP2D6 (Homo sapiens, UniProt P10635); experiment: in vitro; conditions: microsomes, pH 7.4
[11] = 1 μM, 0.5 mg/ml microsomal protein
[12] = mouse, liver microsomes, pH 7.4
[13] = read-out: CLint (L/hr/kg) (converted)

Chain of CYP2D6 (P10635 whole entry): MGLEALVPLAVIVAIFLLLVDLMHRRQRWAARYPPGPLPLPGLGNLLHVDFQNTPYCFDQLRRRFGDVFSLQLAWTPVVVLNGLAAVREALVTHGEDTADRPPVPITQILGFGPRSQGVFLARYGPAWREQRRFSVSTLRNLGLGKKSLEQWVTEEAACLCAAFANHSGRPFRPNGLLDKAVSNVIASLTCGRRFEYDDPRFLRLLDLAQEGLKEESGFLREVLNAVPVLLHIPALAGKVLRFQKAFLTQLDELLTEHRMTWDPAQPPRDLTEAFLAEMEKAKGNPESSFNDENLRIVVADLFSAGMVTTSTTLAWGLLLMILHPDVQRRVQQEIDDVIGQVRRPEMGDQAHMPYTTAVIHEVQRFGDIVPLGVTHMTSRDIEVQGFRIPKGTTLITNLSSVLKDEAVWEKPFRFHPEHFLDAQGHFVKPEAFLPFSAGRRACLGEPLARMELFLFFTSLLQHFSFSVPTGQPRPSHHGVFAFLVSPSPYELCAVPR

Question: Which “PAMPA (pH = 7.4; Papp 10^−6 cm/s)” value (PAMPA (pH 7.4)) does the source give for `CNS(=O)(=O)Nc1cccc(Cc2c(CN(C)C)c3ccc(OC(=O)N(C)C)cc3oc2=O)c1F` [Compound 9] here?
Answer: The value was 37 10^−6 cm/s.

Question: And the “AUC0-∞” value [1]?
Answer: The value was 445 ng·h/mL.

Question: And the “AUC(0-t)” value [1]?
Answer: The value was 441 ng·h/mL.

Question: And the “Cmax” value [1]?
Answer: The value was 725 ng/mL.

Question: What about the “T1/2” value [1] of the same compound?
Answer: Its value is 66 min.

Question: And the “Tmax” value [1]?
Answer: The value was 4.98 min.

Question: What about the “Human Clint” value [2, 11] of the same compound?
Answer: The value was 40 µL/min/mg.

Question: What about the “Human Microsome (t1/2 min)” value [2, 11] of the same compound?
Answer: Its value is 35 min.

Question: And the “CYP-1A2 (Phenacetin) mean percentage CYP inhibition” value (CYP1A2)?
Answer: The value was 2.8%.

Question: And the “eLogD (lipophilicity; pH = 7.4)” value [3]?
Answer: Its value is 3.0.

Question: What about the “CYP-2C8 (Amodiaquine) mean percentage CYP inhibition” value (CYP2C8 [4]) of the same compound?
Answer: Its value is 15.5%.

Question: And the “Mouse Clint” value [5, 11]?
Answer: The value was 32 µL/min/mg.

Question: What about the “Mouse Microsome (t1/2 min)” value [5, 11] of the same compound?
Answer: Its value is 44 min.

Question: What does the source list for `CNS(=O)(=O)Nc1nccc(Cc2c(C)c3ccc(Oc4ncccn4)cc3oc2=O)c1F` [Reference-2, reference compound]?
Answer: Papp at 4 h, 50 μM (PAMPA (pH 7.4); PAMPA): 29 ×10⁻⁶ cm/s; microsomal CLint at 1 μM ([2]; human, liver microsomes, pH 7.4): < 15 µL/min/mg; chromatographic logD [3]: 3.6; half-life at 1 μM [5, 12]: 18 min; microsomal CLint at 1 μM [5, 12]: 78 µL/min/mg

Question: Which AUC(0-inf) ([1]; female, mouse) does the source give for `CNS(=O)(=O)Nc1cccc(Cc2c(CN(C)C)c3ccc(OC(=O)N(C)C)cc3oc2=O)c1Cl` [Compound 274, 3-(2-chloro-3-((N-methylsulfamoyl)amino)benzyl)-4-((dimethylamino)methyl)-2-oxo-2H-chromen-7-yl dimethylcarbamate] here?
Answer: The AUC(0-inf) was 396 ng·h/mL.

Question: And the half-life ([1]; female, mouse)?
Answer: Its half-life is 18 min.

Question: What about the AUC(0-t) ([1]; female, mouse, read-out: AUC0-t) of the same compound?
Answer: Its AUC(0-t) is 392 ng·h/mL.

Question: And the Cmax ([1]; female, mouse, read-out: Cmax)?
Answer: Its Cmax is 796 ng/mL.

Question: What about the Tmax ([1]; female, mouse, read-out: Tmax) of the same compound?
Answer: The Tmax was 4.98 min.

Question: And the CLint scaled at 2 μM [6, 13]?
Answer: The CLint scaled at 2 μM was 2.84 L/h/kg.

Question: And the CLint scaled at 2 μM ([6]; read-out: CLint (mL/min/kg))?
Answer: Its CLint scaled at 2 μM is 2.84 L/h/kg.

Question: And the half-life at 2 μM ([6]; wistar hannover rat hepatocytes)?
Answer: Its half-life at 2 μM is 79 min.

Question: What about the inhibition at 30 min, 10 µM (CYP2C8 [7]) of the same compound?
Answer: Its inhibition at 30 min, 10 µM is 11.9%.

Question: What about the CLint scaled at 2 μM [8, 13] of the same compound?
Answer: The CLint scaled at 2 μM was 5.23 L/h/kg.

Question: And the CLint scaled at 2 μM ([8]; read-out: CLint (mL/min/kg))?
Answer: The CLint scaled at 2 μM was 5.23 L/h/kg.

Question: And the half-life at 2 μM ([8]; balb/c mouse hepatocytes)?
Answer: Its half-life at 2 μM is 188 min.

Question: What about the inhibition at 30 min, 10 µM (CYP1A2; human, microsomes, pH 7.4) of the same compound?
Answer: Its inhibition at 30 min, 10 µM is -3.4%.

Question: And the half-life at 2 μM ([9]; beagle dog hepatocytes)?
Answer: Its half-life at 2 μM is 127 min.

Question: What about the CLint scaled at 2 μM [9, 13] of the same compound?
Answer: The CLint scaled at 2 μM was 3.52 L/h/kg.

Question: And the CLint scaled at 2 μM ([9]; read-out: CLint (mL/min/kg))?
Answer: Its CLint scaled at 2 μM is 3.52 L/h/kg.

Question: And the half-life at 2 μM ([10]; human hepatocytes, 120 min)?
Answer: Its half-life at 2 μM is 112 min.

Question: What about the CLint scaled at 2 μM [10, 13] of the same compound?
Answer: The CLint scaled at 2 μM was 2.01 L/h/kg.

Question: What about the CLint scaled at 2 μM ([10]; read-out: CLint (mL/min/kg)) of the same compound?
Answer: Its CLint scaled at 2 μM is 2.01 L/h/kg.

Question: What about the inhibition at 30 min, 10 µM (CYP2D6) of the same compound?
Answer: Its inhibition at 30 min, 10 µM is 2.5%.

Question: What does the source list for `CNS(=O)(=O)Nc1cccc(Cc2c(CN(C)C)c3cc(F)c(OC(=O)N(C)C)cc3oc2=O)c1F` [Compound 25]?
Answer: AUC0-∞ [1]: 1426 ng·h/mL; AUC(0-t) [1]: 1336 ng·h/mL; Cmax [1]: 1037 ng/mL; T1/2 [1]: 66 min; Tmax [1]: 4.98 min; CYP-1A2 (Phenacetin) mean percentage CYP inhibition (CYP1A2): 7.9%; CYP-2C8 (Amodiaquine) mean percentage CYP inhibition (CYP2C8 [4]): 77.2%

Question: With `CCS(=O)(=O)Nc1cccc(Cc2c(CN(C)C)c3ccc(OC(=O)N(C)C)cc3oc2=O)c1F` [Compound 120] as the compound, how does the “AUC0-∞” value [1] read?
Answer: The value was 673.2 ng·h/mL.

Question: What about the “AUC(0-t)” value [1] of the same compound?
Answer: Its value is 669.3 ng·h/mL.

Question: And the “Cmax” value [1]?
Answer: The value was 1422.7 ng/mL.

Question: And the “T1/2” value [1]?
Answer: The value was 18 min.

Question: And the “Tmax” value [1]?
Answer: The value was 4.98 min.

Question: And the “CYP-1A2 (Phenacetin) mean percentage CYP inhibition” value (CYP1A2)?
Answer: The value was −3.7%.

Question: What about the “CYP-2C8 (Amodiaquine) mean percentage CYP inhibition” value (CYP2C8 [4]) of the same compound?
Answer: Its value is 21.9%.
